For the series the following is noted: apple tree (Golden Delicious variety). The procedure: In this test, the penetration of active substances through enzymatically isolated cuticles of apple tree leaves was measured.
Leaves which were cut off in the stage of full development of apple trees of the Golden Delicious variety were used. The isolation of the cuticles was effected in a manner such that • first leaf discs marked on the underside with dye and punched out were filled by means of vacuum infiltration with a pectinase solution (0.2 to 2% strength) buffered to a pH between 3 and 4, sodium azide was then added and • the leaf discs thus treated were allowed to stand until disintegration of the original leaf structure and detachment of the noncellular cuticle.
Thereafter, only those cuticles of the upper sides of the leaves which were free of staltoa and hairs were further used. They were washed several times alternately with water and a buffer solution at pH 7. The clean cuticles obtained were finally drawn onto small Teflon plates and smoothed and dried with a gentle air jet.
In the next step, the cuticle membranes thus obtained were placed in stainless steel diffusion cells (=transport chambers) for membrane transport investigations. For this purpose, the cuticles were placed by means of forceps centrally on the silicone grease-coated edges of the diffusion cells and closed with a likewise greased ring. The arrangement was chosen so that the morphological outside of the cuticles faced outwards, i.e. towards the air, while the original inside faced the interior of the diffusion cell. The diffusion cells were filled with water or with a mixture of water and solvent. […]
After the application of the spray liquors, in each case the water was allowed to evaporate, and in each case the chambers were then turned around and were placed in thermostated trays, air having a defined temperature and atmospheric humidity being blown onto the outside of the cuticle. […] The active substance penetration was measured with radioactively marked active substance.

Structures are written as SMILES.

With `CC(C)(C)C(O)(CCc1ccc(Cl)cc1)Cn1cncn1` (stereo not drawn) [Tebuconazole, tebuconazole], the “Penetration* after 5 hours [%]” value came out at 2%, the “Penetration* after 1 day [%]” value stood at 8% and the “Penetration** after 2 days [%]” value was determined as 15%.

The values are drawn from US20100298448A1, “PENETRATION ENHANCERS FOR FUNGICIDAL AGENTS” (priority 2006, published 2010).
